Experimental data published in US12473273B2, “Quinoline compounds and compositions for inhibiting EZH2” (Novartis AG, priority 2020, dated 2025).
pIC50: −log10 of the molar value.

Tests used:
[1] = target: wild type PRC2 (wtPRC2) complex (Homo sapiens, UniProt Q15910); experiment: EZH2 LC-MS Assay; assay type: biochemical; details: 40 nM wtPRC2 complex, 30 uM SAM, 1.5 uM H3K27me1 and 3 uM H3K27me3 peptides; SAH production
Method: Representative compounds of the invention were serially and separately diluted 3-fold in DMSO to obtain twelve concentrations. Then the test compounds at each concentration (120 nL of each) were transferred by Mosquito into a 384-well Perkin Elmer ProxiPlate 384 plus plates. Solutions (6 μL) of 80 nM wild type PRC2 (wtPRC2) complex and 60 µM SAM in reaction buffer (20 mM Tris, pH 8.0, 0.1% BSA, 0.01% Triton, 0.5 mM DTT) were added to the wells that were then incubated with the test compound for 20 min. A 6 μL solution of 3 µM of the substrate peptide H3K27me1 (histone H3 [21-44]-K27me1-biotin) and 6 μM regulatory peptide H3K27me3 (histone H3 [21-44]-K27me3) in reaction buffer was added to initiate each reaction. The final components in the reaction solution include 40 nM wtPRC2 complex, 30 µM SAM, 1.5 µM H3K27me1 and 3 µM H3K27me3 peptides with varying concentration of the compounds. A positive control consisted of the enzyme at 40 nM, 30 μM SAM, 1.5 µM H3K27me1 and 3 µM H3K27me3 in the absence of the test compound, and a negative control consisted of 30 µM SAM, 1.5 µM H3K27me1 and 3 μM H3K27me3 only. Each reaction was incubated at room temperature for 120 min, then stopped by addition of 3 μL per of quench solution (2.5% TFA with 320 nM d4-SAH). The reaction mixture was centrifuged (Eppendorf centrifuge 5810, Rotor A-4-62) for 2 min at 2000 rpm and read on an API 4000 triple quadrupole mass spec with Turbulon Spray (Applied Biosystem) coupled with Prominence UFLC (Shimadzu). The levels of SAH production were normalized based on the values coming from the positive and negative controls to give percent enzyme activities. The data were fit to a dose response equation using the program Helios to get the […] values of the test compound.

[2] = system: H3K27 methylation in G401 cell; experiment: ELISA (H3K27 methylation) assay; assay type: cell-based; details: Homo sapiens, G-401, 48 h, cultured 48 h with compound, normalized using H3 signal
Method: ELISA (H3K27 methylation) assay
Representative compounds of the invention were serially and separately diluted 3-fold in DO to obtain a total of eight or twelve concentrations. Then the compounds were added to G401 cell cultured in 384-well plate at 1:500 dilution to obtain the highest concentration of 20 μM. The cells were further cultured for 48 h before ELISA procedure.
Histone extraction: Cells, in 384-well plate, were washed with PBS (10 x PBS buffer (80 g NaCl (Sigma, S3014), 2 g KCl (Sigma, 60128), 14.4 g Na2HPO4 (Sigma, S5136), 2.4 g KH2PO4 (Sigma, P9791) to 1 L water, pH to 7.4) and lysed with the addition of lysis buffer (0.4N HCl; 45 μl per well). The plate was gently agitated at 4° C. for 30 min. The cell lysate was neutralized with neutralization buffer (0.5 M sodium phosphate dibasic, pH 12.5. 1 mM DTT; 36 µL per well). The plate was agitated to ensure the lysates were well mixed prior to the ELISA protocol.
ELISA protocol: Cell lysates were transferred to the wells of a 384-well plate and the final volume was adjusted to 50 μL per well with PBS. The plate was sealed, centrifuged at 2,000 rpm for 2 min and incubated at 4° C. for about 16 h. The plate was washed with TBST buffer (1 x TBS (10x TBS: 24.2 g Tris (Sigma, T6066), 80 g NaCl (Sigma, S3014) to 1 L of water and adjust pH to 7.6 with HCl) with 0.1% Tween-20). Blocking buffer (TBST, 5% BSA; 50 µL per well) was added and the plate was incubated for 1 h at rt. The blocking buffer was removed and primary antibody was added (30 μL per well). The following dilutions were performed with blocking buffer: for anti-H3K27me3 antibody (Cell Signaling Technology, #9733), dilution was 1:1000; for anti-H3K27me2 antibody (Cell Signaling Technology, #9288), dilution was 1:100; for anti-H3 antibody (Abcam, Cat #24834), dilution was 1:1000. The primary antibody was incubated in the plate at rt for 1 h. The wells were washed with TBST and incubated with secondary antibody for 1 h at rt. For secondary antibodies, the following dilutions were carried out with blocking buffer: anti-rabbit antibody (Jackson ImmunoResearch, #111-035-003), dilution was 1:2000; and anti-mouse antibody (Cell signaling technology, #7076), dilution was 1:1000.
After 1 h of incubation at rt, the wells were washed with TBST. ECL substrate (Pierce, #34080) was added at 30 μL per well and the plates were centrifuged at 2,000 rpm for 2 min. The signal was read using a PerkinElmer Envision Reader. The H3K27 methylation readouts were normalized using H3 signal and then percentage inhibition was calculated against the samples treated with DO. The data were fit to a dose response curve using the program Helios to get the IC50 values of the test compound.

Chain of wild type PRC2 (wtPRC2) complex (Q15910 whole entry): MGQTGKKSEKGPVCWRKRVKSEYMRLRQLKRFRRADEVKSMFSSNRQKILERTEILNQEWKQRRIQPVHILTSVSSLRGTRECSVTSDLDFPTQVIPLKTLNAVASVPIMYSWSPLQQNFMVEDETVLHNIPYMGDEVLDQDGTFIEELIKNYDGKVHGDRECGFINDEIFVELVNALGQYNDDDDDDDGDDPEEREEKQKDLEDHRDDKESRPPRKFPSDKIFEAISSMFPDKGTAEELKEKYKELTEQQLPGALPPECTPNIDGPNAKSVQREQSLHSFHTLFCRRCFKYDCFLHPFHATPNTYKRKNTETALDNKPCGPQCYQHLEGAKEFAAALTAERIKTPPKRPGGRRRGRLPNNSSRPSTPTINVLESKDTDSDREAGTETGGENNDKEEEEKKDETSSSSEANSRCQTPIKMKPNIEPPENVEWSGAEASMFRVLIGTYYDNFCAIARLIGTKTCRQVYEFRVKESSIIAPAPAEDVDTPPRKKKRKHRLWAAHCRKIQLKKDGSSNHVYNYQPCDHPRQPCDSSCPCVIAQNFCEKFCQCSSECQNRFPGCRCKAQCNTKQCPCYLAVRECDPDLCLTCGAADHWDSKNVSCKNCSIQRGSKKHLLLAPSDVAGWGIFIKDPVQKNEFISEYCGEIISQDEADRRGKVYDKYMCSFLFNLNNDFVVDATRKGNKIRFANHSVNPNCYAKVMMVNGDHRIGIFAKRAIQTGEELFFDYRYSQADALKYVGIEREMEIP
Chain of wild type PRC2 (wtPRC2) complex (O75530 whole entry partner): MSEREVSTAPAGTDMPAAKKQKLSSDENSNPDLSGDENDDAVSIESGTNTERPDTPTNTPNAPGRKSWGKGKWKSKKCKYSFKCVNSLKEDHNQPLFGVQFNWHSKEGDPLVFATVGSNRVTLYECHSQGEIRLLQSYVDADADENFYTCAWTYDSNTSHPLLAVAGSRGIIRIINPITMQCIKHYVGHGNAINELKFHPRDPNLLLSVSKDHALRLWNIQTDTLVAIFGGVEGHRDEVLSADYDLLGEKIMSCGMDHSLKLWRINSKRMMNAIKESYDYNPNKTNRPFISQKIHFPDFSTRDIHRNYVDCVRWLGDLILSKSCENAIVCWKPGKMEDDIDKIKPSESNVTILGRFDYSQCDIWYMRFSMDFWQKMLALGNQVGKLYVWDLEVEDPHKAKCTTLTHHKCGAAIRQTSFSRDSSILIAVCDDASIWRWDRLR
Chain of wild type PRC2 (wtPRC2) complex (Q15022 whole entry partner): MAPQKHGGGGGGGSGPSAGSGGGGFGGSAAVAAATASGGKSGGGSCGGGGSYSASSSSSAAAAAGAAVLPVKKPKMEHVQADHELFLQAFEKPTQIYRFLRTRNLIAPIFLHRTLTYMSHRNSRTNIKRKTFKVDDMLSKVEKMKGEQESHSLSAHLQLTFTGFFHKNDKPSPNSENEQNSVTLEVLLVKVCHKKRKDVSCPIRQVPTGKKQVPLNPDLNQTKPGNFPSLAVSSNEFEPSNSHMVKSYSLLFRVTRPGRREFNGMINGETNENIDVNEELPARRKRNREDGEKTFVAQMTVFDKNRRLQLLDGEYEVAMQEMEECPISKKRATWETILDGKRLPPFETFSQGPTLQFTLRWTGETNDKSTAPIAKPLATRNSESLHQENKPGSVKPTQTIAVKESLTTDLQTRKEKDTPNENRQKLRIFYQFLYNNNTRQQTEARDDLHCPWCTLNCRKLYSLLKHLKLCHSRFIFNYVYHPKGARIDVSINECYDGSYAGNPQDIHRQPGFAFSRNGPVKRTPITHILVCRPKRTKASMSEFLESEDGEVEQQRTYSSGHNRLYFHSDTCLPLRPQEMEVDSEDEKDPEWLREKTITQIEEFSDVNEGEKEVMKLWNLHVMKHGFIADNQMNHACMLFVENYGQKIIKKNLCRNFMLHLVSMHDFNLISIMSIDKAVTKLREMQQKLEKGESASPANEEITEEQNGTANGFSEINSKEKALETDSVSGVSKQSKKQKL

Molecule `Cc1ccc2ccc(N[C@H]3CC[C@H](CNc4ccc(CC(=O)NC5COC5)cn4)CC3)nc2c1Cl` [Example 15, 2-(6-((((1r,4r)-4-((8-chloro-7-methylquinolin-2-yl)amino)cyclohexyl)methyl)amino)pyridin-3-yl)-N-(oxetan-3-yl)acetamide] has a pIC50 [1] greater than 7.30 and a pIC50 [2] greater than 8.00.
